Test results reported in patent US5693812A, “Polymorphic forms of an angiotensin II antagonist” (priority 1996, dated 1997).
“And” between values parts separate entries of the source, which are not always exact repeats. Identical values can stand only once. Counter-ions that a name gives are not always drawn.

Experiments:
[1] = Hygroscopicity studies / exposure to humidity; format: physicochemical
[2] = Thermogravimetric analysis (TGA) weight loss / water content; format: physicochemical; conditions: for TG of the potassium salt: dried product, Example 1 Step K
Method: (§1) The crystal forms were characterized and evaluated by measuring the heats of solution or solution calorimetry, solubility data, x-ray powder diffraction patterns (XRPD), differential scanning calorimetry (DSC) and thermogravimetric analysis (TGA). Heats of solution at 30° C. were obtained in the Setaram C-80 calvet calorimeter with sample size of 7-13 mg dissolved into 5 ml of 88% DMSO 12% water for a final concentration of 1.4-2.6 mg/ml. XRPD patterns were recorded using an automated Siemens X-ray diffractometer with copper tube K alpha radiation. DSC and TGA were conducted using a Perkin Elmer series 7 instrument with a scan rate of 10° C./min over the temperature range of 30°-300° C. Utilizing these techniques the thermodynamic stability of the polymorphs of 3-[2'-(N-benzoyl)sulfonamidobiphenyl-4-yl]methyl-5,7-dimethyl-2-ethyl-3H-imidazo[4,5-b]pyridine potassium salt was determined.
Step K: Preparation of 3-[2'-(N-Benzyl)sulfonamidobiphenyl-4-yl]methyl-5,7-dimethyl-2-ethyl-3H-imidazo[4,5-b]pyridine potassium salt--(Forms I, Id and W) [drawing 13] In a 72-L four-necked flask fitted with an overhead stirrer and a reflux condenser, 3-[2'-(N-benzyl)sulfonamidobiphenyl-4-yl]methyl-5,7-dimethyl-2-ethyl-3H-imidazo[4,5-b]pyridine 1 (5.04 kg, 9.6 mol), methanol (14.5 L) and water (2.5 L) are mixed. The slurry is warmed to 62° C. under a nitrogen atmosphere and 1.94M potassium hydroxide (4.96 L, 9.61 mol) is added to the slurry at 62° C. over 1.5 hours to provide a homogeneous solution. Isopropyl acetate (13.83 L) is then added at 65° C. and the mixture is warmed to 70° C. The homogeneous solution is filtered at 70° C. to remove any particulates that are present. The filtrate is diluted with isopropyl acetate (1.3 L), methanol (0.6 L) and water (0.1 L). […] The homogeneous mixture is cooled to 52° C. over 2 hours, whereupon potassium salt seed of form "I" (140 g) is added. This mixture becomes cloudy after 30 min. The mixture is aged for 10 hours at 52° C. The white slurry is cooled to 48° C. over 1 hour and stirred for 3 hours. Finally, the crystallization mixture is cooled to 0° C. at a rate of 1° C./12.5 min. and aged for 2 hours at 0° C. […] The solid is centrifuged at 0° C. and displacement-washed with a mixture of 2:2:1 cold (0° C.) isopropyl acetate/methanol/water (5.65 L) followed by isopropyl acetate (2.3 L). The solid is semi-dried to a TG of 10-15% by spin drying. The mother liquors contain 21 wt % of 3-[2'-(N-benzyl)sulfonamidobiphenyl-4-yl]methyl-5,7-dimethyl-2-ethyl-3H-imidazo[4,5-b]pyridine potassium salt. At this stage, the crystal form of the product is form "W". The product is powdered by passing through a screen (size=12). The solid is dried by passing dry nitrogen over the solid under vacuum at 22° C. for 5 hours to yield 4.55 kg of 3-[2'-(N-benzyl)sulfonamidobiphenyl-4-yl]methyl-5,7-dimethyl-2-ethyl-3H-imidazo[4,5-b]pyridine potassium salt as the form "I" with a purity of 99.7% (assay-HClO4 titration) and TG of 7-10%. Generally, the wet cake consists of residual water, methanol and isopropyl acetate. The K-salt is considered dry when <0.05% methanol and isopropyl acetate are detected by ^1 H NMR. The product is further powdered by passing the solid through a Quadro Comil (model 197s, screen size=1143 mm round impeller) to yield 4.5 kg. The product is dried to a TG of 4.6-5.5% by the passage of dry nitrogen over the solid under vacuum at 22° C. After 10 hours, 4.24 kg (78%) of the potassium salt as the form "I" is obtained with a TG of […] (99.7 wt % by titration). The water content can be monitored by TG analysis. The TG of the potassium salt of form "I" is 4.6-5.5%. The crystal form is monitored by X-ray analysis. When the potassium salt is over dried, the crystal form converts to form "Id" (TG<4.6%). […]

[3] = Heat of solution by solution calorimetry (Setaram C-80); format: physicochemical
Method: The heat of solution of different crystal forms of 3-[2'-(N-benzoyl)sulfonamidobiphenyl-4-yl]methyl-5,7-dimethyl-2-ethyl-3H-imidazo[4,5-b]pyridine potassium salt were studied at 30° C. The heat of solution is a measure of the crystal lattice energy. […] Heats of solution had to be conducted in a solvent which dissolved the samples quickly without conversion to another polymorph. This really limited solvents which could be used. Dimethylsulfoxide was chosen for this reason. The heats of solution therefore have contributions from the lattice energy of the solid as well as heat of dilution of lattice water in dimethylsulfoxide. The calorimeter therefore produces a complex signal that has an exothermic contribution from the water and an additional contribution from the energy required to dissolve the crystal. […] Additional heats of solution were determined in a mixed solvent system of 88% dimethylsulfoxide and 12% water. This system was used to minimize the contribution of moisture to the heat of solution.
as §1, with “C.” for “C. Utilizing these techniques the thermodynamic stability of the polymorphs of 3-[2'-(N-benzoyl)sulfonamidobiphenyl-4-yl]methyl-5,7-dimethyl-2-ethyl-3H-imidazo[4,5-b]pyridine potassium salt was determined.”

[4] = Crystal form stability on heating; format: physicochemical; conditions: about 216° C.
[5] = Equilibrium solubility in water at room temperature; format: physicochemical
[6] = Crystal form stability in water (XRPD of remaining solid); format: physicochemical; conditions: room temperature, listed as I, potassium salt
Source text: [13) S. R. Byre. "Solid State Chemistry of Drugs." Academic Press, New York, 1982.] […] Recrystallization of any of these lots from solvents like ethanol, methanol, isopropanol, acetone, etc. gave new crystal forms different from the original forms. […] Solubility in water at room temperature was one of these techniques. The equilibrium solubility in water, at room temperature for five polymorphs (Forms "B", "C", "D", "F", and "G") were the same (Table 1). When the remaining solids were filtered, air dried or vacuum dried overnight at room temperature the XRPD patterns had changed from the initial patterns and all were exactly the same. These experiments indicate that all of the crystal forms converted in water at room temperature to a new crystalline form designated […].
The remaining form "I" solid after equilibrium solubility studies in water was removed by filtration and vacuum dried overnight at room temperature.
After the discovery of form "I", form "D" could no longer be isolated in our laboratory. TGA studies indicate that form "I" of 3-[2'-(N-benzoyl)sulfonamidobiphenyl-4-yl]methyl-5,7-dimethyl-2-ethyl-3H-imidazo[4,5-b]pyridine potassium salt is a dihydrate (FIG. 4).

AT2 binding sites = conditions: background statement; cited from earlier work
[7] = Solubility in crystallization solvent (water/methanol/isopropyl acetate); format: physicochemical; conditions: 1:2:2 water/methanol/isopropyl acetate
Method: Step K: Preparation of 3-[2'-(N-Benzyl)sulfonamidobiphenyl-4-yl]methyl-5,7-dimethyl-2-ethyl-3H-imidazo[4,5-b]pyridine potassium salt--(Forms I, Id and W) [drawing 13] In a 72-L four-necked flask fitted with an overhead stirrer and a reflux condenser, 3-[2'-(N-benzyl)sulfonamidobiphenyl-4-yl]methyl-5,7-dimethyl-2-ethyl-3H-imidazo[4,5-b]pyridine 1 (5.04 kg, 9.6 mol), methanol (14.5 L) and water (2.5 L) are mixed. The slurry is warmed to 62° C. under a nitrogen atmosphere and 1.94M potassium hydroxide (4.96 L, 9.61 mol) is added to the slurry at 62° C. over 1.5 hours to provide a homogeneous solution. Isopropyl acetate (13.83 L) is then added at 65° C. and the mixture is warmed to 70° C. The homogeneous solution is filtered at 70° C. to remove any particulates that are present. The filtrate is diluted with isopropyl acetate (1.3 L), methanol (0.6 L) and water (0.1 L). […] The homogeneous mixture is cooled to 52° C. over 2 hours, whereupon potassium salt seed of form "I" (140 g) is added. This mixture becomes cloudy after 30 min. The mixture is aged for 10 hours at 52° C. The white slurry is cooled to 48° C. over 1 hour and stirred for 3 hours. […] The K-salt is considered dry when <0.05% methanol and isopropyl acetate are detected by ^1 H NMR. […] The water content can be monitored by TG analysis. […] The crystal form is monitored by X-ray analysis. […]

AT1 receptors = conditions: background statement; cited from earlier work

## CCc1nc2c(C)cc(C)nc2n1Cc1ccc(-c2ccccc2S(=O)(=O)NC(=O)c2ccccc2)cc1 [Form Id, 3-[2'-(N-benzoyl)sulfonamidobiphenyl-4-yl]methyl-5,7-dimethyl-2-ethyl-3H-imidazo[4,5-b]pyridine potassium salt]
[1]; ambient humidity
  reconversion upon exposure to ambient humidity: reconverted to form "I"
[2]; listed as Id
  TG of the potassium salt: < 4.6%

## CCc1nc2c(C)cc(C)nc2n1Cc1ccc(-c2ccccc2S(=O)(=O)NC(=O)c2ccccc2)cc1 [Form I, 3-[2'-(N-benzoyl)sulfonamidobiphenyl-4-yl]methyl-5,7-dimethyl-2-ethyl-3H-imidazo[4,5-b]pyridine potassium salt]
[3]; 88% DMSO/12% H2O, 30° C., listed as I, potassium salt
  ΔH solution 88% DMSO/12% H2O: -25.68 ± 2.67 J/g
[3]; 88% dimethylsulfoxide and 12% water
  heat of solution, ranking: most endothermic
[3]; DMSO, 30° C., listed as I, potassium salt
  ΔH solution DMSO at 30° C.: -8.56 ± 1.64 J/g
[3]; dimethylsulfoxide, 30° C.
  heat of solution, ranking: most endothermic
[3]; from heats of solution and equilibrium solubility, listed as I, potassium salt
  thermodynamic stability: thermodynamically stable crystal form
[4]
  crystal form after heating to about 216° C.: converted to form H
[5]; room temperature, Table I, potassium salt
  Solubility in water: 8000 ± 400 µg/mL
[5]; water, pH 7.8 printed for the other crystal forms
  solubility thermodynamic: 8000 µg/mL
[1]; relative humidities of 47% and above
  hygroscopicity: non-hygroscopic
[2]; 30-150° C., listed as I, potassium salt
  % Weight Loss (Δ 30-150° C. by TGA): 4.1-5.9%
[2]; TGA, listed as I, potassium salt
  hydration state: dihydrate
[2]; listed as I
  TG of the potassium salt: 4.6-5.5% and 6.1% and 7-10%
[6]
  crystal form after suspension in water: remained unchanged

## CCc1nc2c(C)cc(C)nc2n1Cc1ccc(-c2ccccc2S(=O)(=O)NC(=O)c2ccccc2)cc1 [3-[2'-(N-benzoyl)sulfonamidobiphenyl-4-yl]methyl-5,7-dimethyl-2-ethyl-3H-imidazo[4,5-b]pyridine potassium salt]
AT2 binding sites
  affinity for AT2 binding sites: low affinity
[7]; 0° C.
  solubility of the potassium salt at 0° C.: 15000 µg/mL
[7]; 60° C.
  solubility of the potassium salt at 60° C.: 174000 µg/mL
AT1 receptors
  affinity for AT1 receptors: high affinity
